# Several values for one entry are separate records, joined by “and”; a condition that tells them apart may be missing. Equal entries are not always repeated.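 Exposure lasted 48 hours, with cells grown in 96-well plates and compounds tested at five concentrations. GI50 is the concentration that inhibits growth by half. TGI: concentration producing complete growth inhibition.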
# Assays:
# Test in all cases: NCI anticancer screen, dose series, 48 h
# CCRF-CEM leukemia = tested on: CCRF-CEM leukemia
# LOX IMVI melanoma = tested on: LOX IMVI melanoma
# SF-268 CNS = tested on: SF-268 CNS
# RPMI-8226 leukemia = tested on: RPMI-8226 leukemia
# KM12 colon = tested on: KM12 colon
# IGROV1 ovarian = tested on: IGROV1 ovarian
# MALME-3M melanoma = tested on: MALME-3M melanoma
# T-47D breast = tested on: T-47D breast
# SNB-19 CNS = tested on: SNB-19 CNS
# NCI/ADR-RES ovarian = tested on: NCI/ADR-RES ovarian
SMILES,TGI (CCRF-CEM leukemia) [µM],TGI (LOX IMVI melanoma) [µM],TGI (SF-268 CNS) [µM],TGI (RPMI-8226 leukemia) [µM],TGI (KM12 colon) [µM],TGI (IGROV1 ovarian) [µM],TGI (MALME-3M melanoma) [µM],TGI (T-47D breast) [µM],TGI (SNB-19 CNS) [µM],TGI (NCI/ADR-RES ovarian) [µM],GI50 (CCRF-CEM leukemia) [µM],GI50 (LOX IMVI melanoma) [µM],GI50 (SF-268 CNS) [µM],GI50 (RPMI-8226 leukemia) [µM],GI50 (KM12 colon) [µM],GI50 (MALME-3M melanoma) [µM],GI50 (IGROV1 ovarian)
CC(C)C(N)=O,> 5000,> 5000,> 5000,> 5000,> 5000,> 5000,> 5000,–,–,–,–,–,–,–,–,–,–
CC1C2(C)OC(=N)C(C#N)(C(c3cccc([N+](=O)[O-])c3)O2)C1(C#N)C#N (stereo not drawn),52.2,36,> 100,–,> 100,> 100,73,35.9,> 100,> 100,–,–,–,–,–,–,–
CN(/N=C/c1ccnc2ccccc12)c1ccc(Cl)cc1[N+](=O)[O-],> 100,–,> 100,–,> 100,> 100,> 100,–,> 100,> 100,–,–,–,–,–,–,–
COc1cc2c(=O)cnoc2cc1O,> 100,–,> 100,> 100,> 100,> 100,> 100,> 100,> 100,> 100,–,–,–,–,–,–,–
C/C=C/C1OC(O)(C(C)C(O)[C@H](C)C2OC(=O)/C(OC)=C/C(C)=C/[C@@H](C)[C@@H](O)[C@@H](C)C(O)C(C)C/C(C)=C/C=C/C2OC)C[C@@H](OC2CC(O)C(OC(N)=O)C(C)O2)C1C (stereo partly drawn),–,< 0.01,10.3,–,1.33,12.9,0.801,–,10.5,> 68.6,–,–,–,–,–,–,–
C=C(OC1C(C)=C2C(C1OC(=O)CCCCCCC)C(C)(OC(C)=O)CC(OC(=O)CCC)C1(O)C2OC(=O)C1(C)O)/C(C)=C/C (stereo not drawn),6.24,–,16.7,0.0256,3.63,11,0.131,–,3.16,6.51,< 0.0001,< 0.0001,< 0.0001,< 0.0001,< 0.0001,0.000907,–
CC/C=C(\C(=C/CC)[N+](=O)[O-])[N+](=O)[O-],42.4,32.2,–,47.6,–,35.9,–,55.6,> 100,52.7,–,–,–,–,–,–,–
FC1C2=C(SC1(F)F)C1CCC2C1 (stereo not drawn),–,> 100,–,> 100,> 100,> 100,> 100,> 100,> 100,> 100,–,–,–,–,–,–,–
NNC(=O)c1nnn(CCc2ccccc2)c1C(=O)NN,> 100,> 100,–,> 100,> 100,–,> 100,–,> 100,> 100,–,–,–,–,–,–,–
N#Cc1c(-c2ccccc2)[nH]c(=O)n(C2OC(CO)C(O)C(O)C2O)c1=O (stereo not drawn),> 100,–,> 100,> 100,> 100,> 100,–,> 100,> 100,> 100,–,–,–,–,–,–,> 100 µM and 21.3 µM
Cc1ccc2oc(=O)c(C(=O)Nc3nc(C45CC6CC(CC(C6)C4)C5)cs3)cc2c1,> 100,> 100,> 100,> 100,> 100,> 100,> 100,–,> 100,> 100,–,–,–,–,–,–,–

# Source: PubChem BioAssay (NCI)
